Tests used:
Details in all cases: incubation time: 72 h
MDA-MB-453 [1] = assay: normalised response (% of control), CellTiter-Glo; higher = more viable cells (100 = DMSO, 0 = benzethonium chloride kill control)
Procedure: (§1)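 DSRT, 72 h incubation, CellTox Green / CellTiter-Glo readout. Signal is normalised to DMSO and benzethonium chloride controls. Value is the normalised response at the highest dose.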

MCF-10A [2] = assay: as above
Procedure: as §1

MFM-223 [3] = assay: as above
Procedure: as §1

BT-474 [4] = assay: as above
Procedure: as §1

CAL-148 [5] = assay: as above
Procedure: as §1

MDA-MB-436 [6] = assay: as above
Procedure: as §1

BT-549 [7] = assay: as above
Procedure: as §1

CAL-85-1 [8] = assay: as above
Procedure: as §1

CAL-51 [9] = assay: as above
Procedure: as §1

HCC1143 [10] = assay: as above
Procedure: as §1

SK-BR-3 = assay: as above
Procedure: as §1

HCC1599 [11] = assay: as above
Procedure: as §1

Hs578T [12] = assay: as above
Procedure: as §1

MDA-MB-468 [13] = assay: as above
Procedure: as §1

HDQ-P1 [14] = assay: as above
Procedure: as §1

MDA-MB-231 [15] = assay: as above
Procedure: as §1

DU-4475 [16] = assay: as above
Procedure: as §1

CAL-120 [17] = assay: as above
Procedure: as §1

HCC1937 [18] = assay: as above
Procedure: as §1

MDA-MB-453 [19] = assay: normalised response (% of control), CellTox Green; higher = less cell death (100 = DMSO, 0 = benzethonium chloride kill control)
Summary of the method: (§2)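 The table gives the normalised signal for a single concentration in each entry. Breast cancer cell lines were seeded (20 µl suspension) into 384-well plates holding compound at 5 concentrations in 10-fold steps over a compound-specific 10,000-fold range and incubated 72 h, then read for CellTox Green fluorescence (485/520 nm) and CellTiter-Glo luminescence. Normalisation on each plate used 0.1 % DMSO (100) and a positive kill control (0).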

MCF-10A [20] = assay: as above
Summary of the method: as §2

MFM-223 [21] = assay: as above
Summary of the method: as §2

BT-474 [22] = assay: as above
Summary of the method: as §2

CAL-148 [23] = assay: as above
Summary of the method: as §2

MDA-MB-436 [24] = assay: as above
Summary of the method: as §2

BT-549 [25] = assay: as above
Summary of the method: as §2

CAL-85-1 [26] = assay: as above
Summary of the method: as §2

CAL-51 [27] = assay: as above
Summary of the method: as §2

HCC1143 [28] = assay: as above
Summary of the method: as §2

HCC1599 [29] = assay: as above
Summary of the method: as §2

Hs578T [30] = assay: as above
Summary of the method: as §2

MDA-MB-468 [31] = assay: as above
Summary of the method: as §2

HDQ-P1 [32] = assay: as above
Summary of the method: as §2

MDA-MB-231 [33] = assay: as above
Summary of the method: as §2

DU-4475 [34] = assay: as above
Summary of the method: as §2

CAL-120 [35] = assay: as above
Summary of the method: as §2

HCC1937 [36] = assay: as above
Summary of the method: as §2

| SMILES | normalised response (MDA-MB-453 [1]) [%] | normalised response (MCF-10A [2]) [%] | normalised response (MFM-223 [3]) [%] | normalised response (BT-474 [4]) [%] | normalised response (CAL-148 [5]) [%] | normalised response (MDA-MB-436 [6]) [%] | normalised response (BT-549 [7]) [%] | normalised response (CAL-85-1 [8]) [%] | normalised response (CAL-51 [9]) [%] | normalised response (HCC1143 [10]) [%] | normalised response (SK-BR-3) [%] | normalised response (HCC1599 [11]) [%] | normalised response (Hs578T [12]) [%] | normalised response (MDA-MB-468 [13]) [%] | normalised response (HDQ-P1 [14]) [%] | normalised response (MDA-MB-231 [15]) [%] | normalised response (DU-4475 [16]) [%] | normalised response (CAL-120 [17]) [%] | normalised response (HCC1937 [18]) [%] | normalised response (MDA-MB-453 [19]) [%] | normalised response (MCF-10A [20]) [%] | normalised response (MFM-223 [21]) [%] | normalised response (BT-474 [22]) [%] | normalised response (CAL-148 [23]) [%] | normalised response (MDA-MB-436 [24]) [%] | normalised response (BT-549 [25]) [%] | normalised response (CAL-85-1 [26]) [%] | normalised response (CAL-51 [27]) [%] | normalised response (HCC1143 [28]) [%] | normalised response (HCC1599 [29]) [%] | normalised response (Hs578T [30]) [%] | normalised response (MDA-MB-468 [31]) [%] | normalised response (HDQ-P1 [32]) [%] | normalised response (MDA-MB-231 [33]) [%] | normalised response (DU-4475 [34]) [%] | normalised response (CAL-120 [35]) [%] | normalised response (HCC1937 [36]) [%] |
| --- | --- | --- | --- | --- | --- | --- | --- | --- | --- | --- | --- | --- | --- | --- | --- | --- | --- | --- | --- | --- | --- | --- | --- | --- | --- | --- | --- | --- | --- | --- | --- | --- | --- | --- | --- | --- | --- |
| C=CCc1cccc(/C=N/NC(=O)CN2CCN(Cc3ccccc3)CC2)c1O [PAC-1] (10000 nM) | 26.4 | 77.7 | 43.4 | 38.9 | 26.6 | 17.8 | 34 | 21 | 5.5 | 41.4 | 14.9 | 33.4 | 73.5 | 11.6 | 61.4 | 45 | 9.69 | 34.8 | 27.7 | 93.7 | 99.2 | 103 | 74.2 | 61.4 | 103 | 2.94 | 63.3 | 68.6 | 101 | 91 | 116 | 65.4 | 113 | 86.4 | 86.9 | 70.5 | 96 |
| Cc1cnc(NC(=O)Nc2cc(Br)c(C)cc2OC[C@@H]2CNCCO2)cn1 [Rabusertib] (1000 nM) | 77.2 | 112 | 98.2 | 100 | 112 | 116 | 91.5 | 87.8 | 110 | 99.5 | 48.6 | 29.4 | 71.3 | 102 | 100 | 92.1 | 106 | 102 | 80.9 | 104 | 109 | 82.7 | 103 | 58.9 | 104 | 109 | 59.3 | 111 | 129 | 95.7 | 103 | 137 | 110 | 100 | 102 | 106 | 114 |
| CCCCC(=O)OCC(=O)[C@]1(O)Cc2c(O)c3c(c(O)c2[C@@H](O[C@H]2C[C@H](NC(=O)C(F)(F)F)[C@H](O)[C@H](C)O2)C1)C(=O)c1c(OC)cccc1C3=O [Valrubicin] (5000 nM) | 22.1 | 9.91 | 40.8 | 40.1 | 0.81 | 35.4 | 13.4 | 37 | 0.2 | 19.9 | 8.77 | 24.8 | 34.1 | 22.8 | 45.4 | 47.7 | 0.06 | 59.3 | 50.2 | 150 | 157 | 118 | 112 | 119 | 147 | 208 | 170 | 106 | 176 | 196 | 193 | 548 | 134 | 205 | 147 | 128 | 183 |
| CCCS(=O)(=O)Nc1ccc(F)c(C(=O)c2c[nH]c3ncc(-c4ccc(Cl)cc4)cc23)c1F [Vemurafenib] (10000 nM) | 89.3 | 95.8 | 80.1 | 82.6 | 94.7 | 66.8 | 71.8 | 85.1 | 78.4 | 86.1 | 71 | 86.4 | 70.7 | 57.2 | 70.7 | 86.3 | 2.81 | 91.1 | 84 | 101 | – | 97.7 | 95.4 | 75.7 | 92.7 | 89.5 | 109 | 65.3 | 100 | 95.8 | 71.5 | 148 | 98.9 | 87 | 77.1 | 97.3 | 78.4 |
| CCN(CC)CCCC(C)Nc1c2ccc(Cl)cc2nc2ccc(OC)cc12 (stereo unspecified) [Mepacrine] (50000 nM) | 98.8 | 100 | 93.5 | 100 | 91 | 97 | 106 | 103 | 87.4 | 99.2 | 89.3 | 113 | 97.7 | 102 | 101 | 94.8 | 92.2 | 106 | 100 | 61.2 | 103 | 84.8 | 104 | 88 | 91.2 | 97.8 | 101 | 99.1 | 104 | 93.3 | 58.1 | 89.7 | 99.8 | – | 96.4 | 95.8 | 112 |
| CNC(=O)c1cc(Oc2ccc(NC(=O)Nc3cc(C(C)(C)C)nn3-c3ccc4ncccc4c3)c(F)c2)ccn1 [Rebastinib] (1000 nM) | 111 | 102 | 62.2 | 81.6 | 118 | 112 | 71.3 | 87.5 | 74.1 | 102 | 92.1 | 102 | 116 | 102 | 95.7 | 77.8 | 96.7 | 69.2 | 99.8 | 104 | 101 | 101 | 89.2 | 101 | 85.7 | 77.5 | – | 99.7 | 115 | 100 | 106 | 64 | – | 102 | 99.7 | 85.9 | 107 |
| Nc1nc(F)nc2c1ncn2[C@@H]1O[C@H](CO)[C@@H](O)[C@@H]1O [Fludarabine] (10000 nM) | 112 | 114 | 108 | 82.9 | 87.6 | 53.2 | 79.1 | 83.9 | 125 | 69.9 | 99 | 78.9 | 98.3 | 105 | 96.3 | 95.2 | 106 | 86.1 | 86.3 | 98.5 | 101 | – | 97.5 | 93 | 84.9 | 93.6 | 68.5 | 101 | 116 | 101 | 93.3 | 119 | 105 | 103 | 97.6 | 96 | 91.6 |
| Nc1nc2[nH]cc(CCc3ccc(C(=O)N[C@@H](CCC(=O)O)C(=O)O)cc3)c2c(=O)[nH]1 [Pemetrexed] (10000 nM) | 97.5 | 91.7 | 89.7 | 39 | 88.5 | 78.1 | 97.2 | 54.2 | 68.3 | 91 | 65.9 | 75.9 | 18.5 | 93.3 | 82.7 | 48 | 93.7 | 81.9 | 65.9 | 93 | 72 | 98.8 | 77.3 | 102 | 80.4 | 98.9 | 81.1 | 87 | 119 | 91.5 | 65.3 | – | 111 | 70.5 | 96.7 | 99.8 | 99 |
| O=C(O)C1(C(=O)O)CCC1.[NH2-].[NH2-].[Pt+2] [Carboplatin] (10000 nM) | 95.8 | 99.2 | 102 | 98.8 | 103 | 92.5 | 103 | 96.4 | 114 | 103 | 92.8 | 108 | 99.3 | 92.4 | 101 | 96.9 | 96.9 | 101 | 89.2 | 94.3 | 117 | 94 | 106 | 97.8 | 99.8 | 88.1 | 99.3 | 97.1 | – | 100 | 135 | 108 | 80.6 | 103 | 99.8 | 103 | 101 |
